How the values were obtained:
[1] = test system: guanosine monophosphate kinase and extract of HSV1-infected HeLa cells; format: biochemical; conditions: gmp kinase, 4 h
Procedure: To the rest of the incubation mixtures were now added 0.04 units of guanosine monophosphate kinase and 20 μl of an extract of HSV1-infectedHeLa cells [The cells were infected with the virus at a multiplicity of 10 and harvested 8 hours later; they were suspended in a solution containing 0.35M KH2 PO4, pH 7.5, 0.5 mM dithiothreitol, 0.2% polyoxyethylene(9)octylphenol (Nonidet P-40), 14% glycerol at 50 mg/ml and after 30 minutes at 4° were centrifuged at […]; the supernatant liquid was the crude extract.] Incubation was continued at 30° for 4 more hours, after which samples were analyzed by HPLC and the amount of the triphosphate derivatives of each compound determined by integration of the area under the respective chromatographic peak.

[2] = test system: Herpes simplex virus type 2; assay: Tube dilution assay, viral cytopathology of HSV-2 in rabbit kidney cell cultures; conditions: Human alphaherpesvirus 2, in Oryctolagus cuniculus, read-out: Minimum Effective Concentration
Genotoxicity = conditions: qualitative statement
[3] = test system: Herpes simplex virus type I (HSV-1), strain Schooler; assay: Treatment of Herpes simplex virus infection in mice, repeat experiment (Table III); format: in vivo, HSV-1; ICR/Ha mice; conditions: for Percent Survival: at 15 days
Procedure: Twenty gram ICR/Ha mice were injected intraperitoneally (ip) with 0.5 ml of a 10^-5 dilution of a stock preparation of Herpes simplex virus type I (HSV-1), strain Schooler. This virus challenge infected each animal with approximately 100 LD50. […] The placebo group was composed of 45 animals. All compounds were solubilized in physiological saline, pH 11.5.

[4] = Comparative solubilities in pH 7.2 buffer at 25°; format: physicochemical; conditions: aqueous buffer; pH 7.2 phosphate buffer, 25°
Procedure: Comparative Solubilities in pH 7.2 Buffer at 25°
Solubilities were determined by suspending an excess amount of the compound in approximately 0.15 molar phosphate buffer (pH 7.2) and shaking overnight in a water bath at 25° to give a saturated solution. The concentration of the compound in the filtered solution was calculated on the basis of spectrophotometric measurements, i.e. comparison of the ultraviolet absorbance at the λmax for the saturated solution with the absorbance value observed for a known concentration of the compound.

[5] = test system: Herpes simplex virus type 1; assay: Tube dilution assay, viral cytopathology of HSV-1 in rabbit kidney cell cultures; conditions: Human alphaherpesvirus 1, in Oryctolagus cuniculus, read-out: Minimum Effective Concentration, Strain Schooler
[6] = test system: Herpes simplex virus type I (HSV-1), strain Schooler; assay: Treatment of Herpes simplex virus infection in mice, intraperitoneal HSV-1, subcutaneous treatment (Table II); format: in vivo, HSV-1; ICR/Ha mice; conditions: for Percent Survival: at 15 days
[7] = biological target: T1, guanosine monophosphate kinase from hog brain (Sus scrofa, UniProt P31006); assay: Kinetic parameters with purified guanosine monophosphate kinase; format: biochemical; conditions: for Vmax: 25°, pH 7.6
T1 sequence (P31006 1-198): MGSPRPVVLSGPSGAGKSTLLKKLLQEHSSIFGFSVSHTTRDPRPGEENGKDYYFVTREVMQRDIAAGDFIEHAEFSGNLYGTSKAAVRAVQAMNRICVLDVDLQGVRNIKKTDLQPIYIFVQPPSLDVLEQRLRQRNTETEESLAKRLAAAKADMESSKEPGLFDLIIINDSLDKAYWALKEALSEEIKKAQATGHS

mycoplasmal growth = assay: Inhibition of mycoplasmal growth in chickens; format: in vivo; conditions: systemic, 875 μg/bird
Recombinant 6-19 = assay: Drug sensitivity of HSV-1/HSV-2 intertypic Recombinant 6-19; conditions: Recombinant 6-19
[8] = test system: HSV-1 wild type Strain 17; assay: Drug sensitivity of HSV-1 wild type Strain 17; conditions: HSV-1 wild type Strain 17
Recombinant 6-30 = assay: Drug sensitivity of HSV-1/HSV-2 intertypic Recombinant 6-30; conditions: Recombinant 6-30
Recombinant 6-34 = assay: Drug sensitivity of HSV-1/HSV-2 intertypic Recombinant 6-34; conditions: Recombinant 6-34
HSV-1 PAA ®1 = conditions: HSV-1 PAA R1
Recombinant 6-26 = assay: Drug sensitivity of HSV-1/HSV-2 intertypic Recombinant 6-26; conditions: Recombinant 6-26

Nc1nc2c(ncn2COCC(O)CO)c(=O)[nH]1 (stereo not drawn) [Compound of Formula I, 9-(2,3-Dihydroxy-1-propoxymethyl)guanine]
converted to the triphosphate [1]: 55%
minimal effective concentration [2]: 3 to 6 µg/mL
genotoxicity (Genotoxicity): lack of genotoxicity
Avg. Survival Time ([3]; 3.1 mg/kg/day s.c.): 7.2 days
Percent Survival ([3]; 3.1 mg/kg/day s.c.): 6%
Avg. Survival Time ([3]; 12.5 mg/kg/day s.c.): 9.8 days
Percent Survival ([3]; 12.5 mg/kg/day s.c.): 33%
Avg. Survival Time ([3]; 50 mg/kg/day s.c.): 10.5 days
Percent Survival ([3]; 50 mg/kg/day s.c.): 36%
calculated average relative potency to acycloguanosine (95% CI) ([3]; combined results of both mouse experiments): 9.2
solubility [4]: 3600 µg/mL
minimal effective concentration [5]: 1 to 3 µg/mL
Avg. Survival Time ([6]; 3.1 mg/kg/day s.c.): 6.3 days
Percent Survival ([6]; 3.1 mg/kg/day s.c.): 0%
Avg. Survival Time ([6]; 12.5 mg/kg/day s.c.): 9.0 days
Percent Survival ([6]; 12.5 mg/kg/day s.c.): 26%
Avg. Survival Time ([6]; 50 mg/kg/day s.c.): 11.8 days
Percent Survival ([6]; 50 mg/kg/day s.c.): 60%

Nc1nc2c(ncn2COC(CO)COP(=O)(O)O)c(=O)[nH]1 (stereo not drawn) [Compound of Formula II Monophosphate]
relative efficiency as substrate (Vmax /Km) vs acycloguanosine monophosphate [7]: 492 to 1
Vmax [7]: 7.1 µg/min/mg

Nc1nc2c(ncn2[C@H]2C[C@H](O)[C@@H](COP(=O)(O)O)O2)c(=O)[nH]1 [Deoxyguanosine monophosphate, deoxyguanosine monophosphate, reference compound]
Vmax [7]: 17.2 µg/min/mg

CCCCCCCC(=O)OCC(COC(=O)CCCCCCC)OCn1cnc2c(=O)[nH]c(N)nc21 [Example 11, 9-(1,3-Dioctanoyloxy-2-propoxymethyl)guanine]
inhibition of mycoplasmal growth (mycoplasmal growth): 75%

O=C(O)CP(=O)(O)O [PAA, phosphonoacetic acid, reference compound]
Sensitivity (S) or Resistance (R) (Recombinant 6-19): R
Sensitivity (S) or Resistance (R) [8]: S
Sensitivity (S) or Resistance (R) (Recombinant 6-30): S
Sensitivity (S) or Resistance (R) (Recombinant 6-34): R
Sensitivity (S) or Resistance (R) (HSV-2 TS6; HSV-2 TS6): S
sensitivity of HSV-2 Ts6 (HSV-2 TS6; HSV-2 Ts6): sensitive
Sensitivity (S) or Resistance (R) (HSV-1 PAA ®1): R
Sensitivity (S) or Resistance (R) (Recombinant 6-26): S

Reference: patent publication US4816447A, “Anti-viral guanine compounds” (priority 1984, dated 1989)
